Earlier results as cited in US20200360292A1, “OIL-SOLUBLE DRUG CONTAINING COMPOSITIONS AND METHODS OF USE THEREOF” (priority 2019, published 2020).

Settings: inhalation

CCCCCc1cc(O)c2c(c1)OC(C)(C)[C@@H]1CCC(C)=C[C@@H]21 [THC, Δ9-tetrahydrocannabinol]
Time to maximum plasma concentration: within minutes
